{
  "source": "patent US20210254101A1",
  "about": "“METHODS FOR TREATING SPINAL CORD INJURY” (THE CHILDREN'S MEDICAL CENTER CORPORATION, priority 2018, published 2021)",
  "key": {"[1]": {"test_system": "mice with staggered lesions", "experiment": "Hindlimb kinematic analysis (MotoRater) and EMG recording of TA and GS muscles during stepping", "assay_type": "in vivo, mouse", "description": "This extent of recovery is functionally significant, as stepping ability has been implicated as the limiting step for functional recovery in severe injury models (Schucht et al., 2002).\nEMG Recording and cortical stimulation. The procedure for EMG recording in free moving animals was similar to that described previously (Pearson et al., 2005). In brief, at 9 weeks after surgery, 5 mice from each group (Control, CLP290 and AAV-KCC2 treated mice) underwent implantation of customized bipolar electrodes into selected hindlimb muscles to record EMG activity. Electrodes (793200, A-M Systems) were led by 30 gauge needles and inserted into the mid-belly of the medial gastrocnemius (GS) and tibialis anterior (TA) muscles of the right hindlimb. A common ground wire was inserted subcutaneously in the neck-shoulder area. Wires were routed subcutaneously through the back to a small percutaneous connector securely cemented to the skull of the mouse. EMG signals were acquired using a differential AC amplifier (1700, A-M Systems, WA) with 10-1000 Hz filtration, sampled at 4 kHz using a digitizer (PowerLab 16/35, ADInstruments), and analyzed by LabChart 8 (ADInstruments).\nBehavioral Experiments. Motor function was evaluated with a locomotor open field rating scale on the Basso Mouse Scale (BMS). For transient pharmacological treatments, ten to fifteen minutes (van den Brand et al., 2012) prior to behavioral tests (grounding walking, all of which were performed individually), mice received systematic administration (i.p.) of the neural modulators listed above. It is important to note that with a single intraperitoneal injection, plasma CNO levels peak at 15 min and become very low by 2 h after injection (Guettier et al., 2009). For chronic pharmacological treatments, 24 hours prior to behavioral tests, mice received systematic administration of the compounds listed above. All behavioral tests were completed within 1-3 hours. For detailed hindlimb kinematic analysis, mice from different groups were placed in the MotoRater (TSE Systems, (Zorner et al., 2010)), and all kinematic analysis was performed based on data collected by the MotoRater."}, "[2]": {"test_system": "propriospinal and brain-derived descending axons", "experiment": "Axon regrowth tracing: retrograde HiRet-mCherry, anterograde AAV-ChR2, 5-HT immunohistochemistry", "assay_type": "in vivo, mouse", "procedure": "To test these possibilities, it was determined whether CLP290 increased the regrowth of spared propriospinal axons, and/or their connecting axons from the brain. To analyze neuronal projections to the hindlimb locomotor control center in each condition, a retrograde tracing pseudotyped lentiviral vector (HiRet) expressing mCherry (HiRet-mCherry) (Kato et al., 2011; Wang et al., 2017; Liu et al., 2017) was injected into the lumbar enlargement (L2-L4). At 2 weeks after injury, most retrogradely labeled neurons were found in the spinal cord segments between and around the lesions, with few above the lesion and none in the brain ([…]). […] Similarly, the sprouting of serotonergic axons detected by 5-HT immunohistochemistry was also not affected by CLP290 treatment (FIG. 9D-9F). Thus, it is unlikely that CLP290 acts by promoting the regrowth of brain-derived descending axons into the relay zone, or propriospinal axons projecting to the lumbar spinal cord.\nFor reticulospinal tracing experiments (procedure was described previously (Esposito et al., 2014)), AAV2/8-ChR2-YFP and AAV2/8-ChR2-mCherry were injected into the mouse right and left reticular formation in the brain stem respectively. For CST tracing experiments (procedure was described previously (Liu et al., 2010; Liu et al., 2017)), AAV2/8-ChR2-mCherry was injected to the mouse right sensorimotor cortex (all AAV titers were adjusted to 0.5-5×10^13 copies/ml for injection, produced by The Viral Core, Boston Children's Hospital). For lumbar level retrograde tracing, vectors of HiRet-mCherry (lenti-virus titers were adjusted to 1.6-2×10^12 copies/ml for injection) were constructed based on the HiRet-lenti backbone (Kinoshita et al., 2012). Injection procedure was described previously (Wang et al., 2017), in which HiRet-mCherry is injected into left or right lumbar spinal cord from segments 2-4.\nSpinal cord transverse and horizontal sections were imaged with a confocal laser-scanning microscope (Zeiss 700 or Zeiss 710). To quantify and compare fluorescence intensity of: reticular spinal tract projections (RFP^+ and GFP^+), and corticospinal tract (CST) projections (GFP^+), at different transverse spinal cord segments sections (FIGS. 10A and 10C); as well as 5HT axonal staining (FIG. 10B). All images, used for analysis under multiple conditions, were taken using the same optical parameters to avoid saturation. Densitometry measurements were taken by using FIJI software, after being sub-thresholded to the background and normalized by area.\naTo quantify and compare the retrograde HiRet-marked cell body of spinal neurons in different treatments, all images were decomposed to individual channels and planes. They were aligned and quantified using custom-developed MATLAB codes. […]"}},
  "data": [
    {"smiles": "O=C1N=C(N2CCCCN2)S/C1=C\\c1ccc(F)cc1OC(=O)N1CCCC1", "note": "[CLP290, [5-Fluoro-2-[(Z)-(2-hexahydropyridazin-1-yl-4-oxo-thiazol-5-ylidene)methyl]phenyl] pyrrolidine-1-carboxylate]", "values": [
      {"measurement": "total hindlimb stride length", "setting": "[1]; 9 weeks post staggered injury, versus vehicle, FIG. 1J", "value": "significantly increased"},
      {"measurement": "TA/GS activation pattern during stepping gait", "setting": "[1]; compared with alternating TA/GS activation in intact mice, FIG. 1K", "value": "co-activation of TA and GS during the swing phase"},
      {"measurement": "oscillation of hindlimb joints", "setting": "[1]; staggered-lesioned mice during stepping, FIGS. 1H-1K", "value": "significantly increased oscillation of hindlimb joints"},
      {"measurement": "bodyweight support during stepping", "setting": "[1]; staggered-lesioned mice, 8-9 weeks after injury", "value": "could partially support their body weight"},
      {"measurement": "EMG activity of tibialis anterior (TA) and gastrocnemius soleus (GS) muscles", "setting": "[1]; staggered-lesioned mice, FIG. 1K, 2H", "value": "showed both TA and GS activity"},
      {"measurement": "sprouting of serotonergic axons", "setting": "[2]; 5-HT immunohistochemistry, FIG. 9D-9F", "value": "not affected"},
      {"measurement": "number of retrogradely traced neurons in the spinal cord", "setting": "[2]; HiRet-mCherry injected into L2-L4, 10 weeks after injury, FIGS. 8C and 8F", "value": "did not affect these measures"},
      {"measurement": "sprouting of descending brainstem reticulospinal axons", "setting": "[2]; anterograde tracing with AAV-ChR2-mCherry and AAV-ChR2-GFP, 2 and 10 weeks after injury, FIG. 9A-9C", "value": "failed to reveal increased sprouting"},
      {"measurement": "sprouting of corticospinal axons", "setting": "[2]; anterograde tracing, 2 and 10 weeks after injury, FIG. 9G-9I", "value": "failed to reveal increased sprouting"}
    ]}
  ]
}
